The values that follow come from patent US7384931B2, “Constrained compounds as CGRP-receptor antagonists” (Bristol-Myers Squibb Company, priority 2004, dated 2008).

Assay [1] concerns the target T1, CGRP receptor (Homo sapiens, UniProt O60894+Q16602). Kind of assay: Cyclic AMP functional antagonism assay in SK-N-MC cells. Particulars: inhibition of 0.3 nM CGRP-induced cyclic AMP formation, 15 min pre-incubation, read-out: cAMP Function IC50. It counts as cell-based. The arrangement: SK—N-MC cells that endogenously express the human CGRP receptor; endogenous in cells; host or cells: SK-N-MC cells. As for the experimental part: Cyclic AMP Functional Antagonism Assay. Antagonism of the compounds of invention was determined by measuring the formation of cyclic AMP (adenosine 3′5′-cyclic monophosphate) in SK—N-MC cells that endogenously express the human CGRP receptor. CGRP receptor complex is coupled with Gs protein and CGRP binding to this complex leads to the cyclic AMP production via Gs—dependent activation of an adenylate cyclase (Juaneda C et al., TiPS, 2000; 21:432-438; incorporated by reference herein). Consequently, CGRP receptor antagonists inhibit CGRP—induced cyclic AMP formation in SK—N-MC cells (Doods H et al., Br J Pharmacol, 2000; 129(3):420-423); incorporated by reference herein). For cyclic AMP measurements SK—N-MC cells were incubated with 0.3 nM CGRP alone or in the presence of various concentrations of the compounds of invention for 30 min at room temperature. Compounds of invention were pre-incubated with SK—N-MC cells for 15 min before the addition of CGRP to allow receptor occupancy (Edvinsson et al., Eur J Pharmacol, 2001, 415:39-44; incorporated by reference herein). Cyclic AMP was extracted using the lysis reagent and its concentration was determined by radioimmunoassay using RPA559 cAMP SPA Direct Screening Assay Kit (Amersham Pharmacia Biotech). IC50 values were calculated using Excel fit.

Assay [2] concerns the target T1, CGRP receptor. The experiment in a line: CGRP radioligand binding assay ([125I]-CGRP displacement, SK-N-MC homogenate). On the set-up: endogenous in cells; host or cells: SK-N-MC cells (homogenate/membrane pellet). Particulars: displacement of [125I]-CGRP, room temperature 2 h. In outline:
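SK-N-MC cell homogenate (5 μg/well) was incubated 2 h at room temperature with [125I]-CGRP (diluted to 60 pM before addition) in 50 mM Tris-Cl pH 7.5, 5 mM MgCl2, 0.005% Triton X-100 plus protease inhibitors. Bound radioactivity was collected by filtration; 1 μM beta-CGRP defined non-specific binding. IC50 is 50% radioligand displacement.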
On the technique in general: In a radioligand displacement assay an active substance lowers the binding of a labelled ligand.

T1 sequence (Q16602 23-461): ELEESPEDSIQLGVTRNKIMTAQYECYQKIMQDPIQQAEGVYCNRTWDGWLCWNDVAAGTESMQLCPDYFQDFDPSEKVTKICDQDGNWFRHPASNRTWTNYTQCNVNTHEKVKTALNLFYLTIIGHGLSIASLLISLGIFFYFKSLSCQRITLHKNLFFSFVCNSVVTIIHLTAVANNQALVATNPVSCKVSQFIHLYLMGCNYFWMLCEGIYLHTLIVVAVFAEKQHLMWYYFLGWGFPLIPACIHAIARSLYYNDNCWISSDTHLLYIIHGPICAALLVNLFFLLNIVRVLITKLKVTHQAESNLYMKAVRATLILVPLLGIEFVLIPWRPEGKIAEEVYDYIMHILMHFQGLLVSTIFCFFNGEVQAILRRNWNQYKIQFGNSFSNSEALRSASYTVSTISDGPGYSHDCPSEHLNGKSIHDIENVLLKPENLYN
T1 sequence (O60894 27-148): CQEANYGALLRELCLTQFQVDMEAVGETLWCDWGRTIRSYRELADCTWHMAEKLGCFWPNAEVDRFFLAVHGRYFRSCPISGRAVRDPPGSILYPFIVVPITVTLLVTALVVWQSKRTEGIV

Take `O=C(N[C@@H]1Cc2ccc3[nH]ncc3c2CN(Cc2ccccc2)C1=O)N1CCC(N2Cc3ccccc3NC2=O)CC1` [Example 1, 4-(2-Oxo-1,4-dihydro-2H-quinazolin-3-yl)-piperidine-1-carboxylic acid (9-benzyl-8-oxo-3,6,7,8,9,10-hexahydro-2,3,9-triaza-(R)-cyclohepta[e]inden-7-yl)-amide]: the IC50 in assay [1] and in assay [2] was 10 to 100 nM each time.

On to `O=C(C[C@@H]1Cc2cc(Cl)c3[nH]ncc3c2CN(Cc2ccncc2)C1=O)N1CCC(N2Cc3ccccc3NC2=O)CC1` [Example 49, (S)-4-Chloro-7-(2-oxo-2-(4-(2-oxo-1,2-dihydroquinazolin-3(4H)-yl)piperidin-1-yl)ethyl)-9-(pyridin-4-ylmethyl)-6,7,9,10-tetrahydroazepino[3,4-e]indazol-8(3H)-one], for which the half-maximal inhibitory concentration (IC50) in assay [1] and in assay [2] was 0.1 to 10 nM throughout.

With `CC(C)(C)CN1Cc2c(cc(Cl)c3[nH]ncc23)C[C@@H](CC(=O)N2CCC(N3Cc4ccccc4CC3=O)CC2)C1=O` [Example 41, (S)-4-Chloro-9-neopentyl-7-(2-oxo-2-(4-(3-oxo-3,4-dihydroisoquinolin-2(1H)-yl)piperidin-1-yl)ethyl)-6,7,9,10-tetrahydroazepino[3,4-e]indazol-8(3H)-one], the IC50 in assay [1] and in assay [2] was 0.1 to 10 nM throughout.

As for `C[C@@H](c1ccccc1)N1Cc2c(ccc3[nH]ncc23)C[C@@H](NC(=O)N2CCC(N3Cc4ccccc4NC3=O)CC2)C1=O` [Example 10, 4-(2-Oxo-1,4-dihydro-2H-quinazolin-3-yl)-piperidine-1-carboxylic acid [8-oxo-9-(1-(S)-phenyl-ethyl)-3,6,7,8,9,10-hexahydro-2,3,9-triaza-(R)-cyclohepta[e]inden-7-yl]-amide], the IC50 in assay [1] and in assay [2] was 10 to 100 nM each time.

As for `O=C(N[C@@H]1Cc2cc(Cl)c3[nH]ncc3c2CN(Cc2ccccc2)C1=O)N1CCC(N2Cc3ccccc3NC2=O)CC1` [Example 12, 4-(2-Oxo-1,4-dihydro-2H-quinazolin-3-yl)-piperidine-1-carboxylic acid (9-benzyl-4-chloro-8-oxo-3,6,7,8,9,10-hexahydro-2,3,9-triaza-(R)-cyclohepta[e]inden-7-yl)-amide], the IC50 in assay [1] and in assay [2] was 0.1 to 10 nM each time.

In the case of `CC(C)(C)CN1Cc2c(ccc3[nH]ncc23)C[C@@H](CC(=O)N2CCC(N3Cc4cccc(F)c4NC3=O)CC2)C1=O` [Example 39, (S)-7-(2-(4-(8-Fluoro-2-oxo-1,2-dihydroquinazolin-3(4H)-yl)piperidin-1-yl)-2-oxoethyl)-9-neopentyl-6,7,9,10-tetrahydroazepino[3,4-e]indazol-8(3H)-one], the IC50 in assay [1] and in assay [2] was 10 to 100 nM in each case.

As to `O=C(C[C@@H]1Cc2cc(Cl)c3[nH]ncc3c2CN(Cc2ccncc2)C1=O)N1CCC(N2Cc3cccc(F)c3NC2=O)CC1` [Example 50, (S)-4-Chloro-7-(2-(4-(8-fluoro-2-oxo-1,2-dihydroquinazolin-3(4H)-yl)piperidin-1-yl)-2-oxoethyl)-9-(pyridin-4-ylmethyl)-6,7,9,10-tetrahydroazepino[3,4-e]indazol-8(3H)-one], the IC50 in assay [1] and in assay [2] was 0.1 to 10 nM each time.

In the case of `CC(C)CN1Cc2c(ccc3[nH]ncc23)CC(NC(=O)N2CCC(N3Cc4ccccc4NC3=O)CC2)C1=O` (centres unmarked) [Example 24, 4-(2-Oxo-1,4-dihydro-2H-quinazolin-3-yl)-piperidine-1-carboxylic acid (9-isobutyl-8-oxo-3,6,7,8,9,10-hexahydro-2,3,9-triaza-cyclohepta[e]inden-7-yl)-amide], the IC50 in assay [1] and in assay [2] was 10 to 100 nM throughout.

Take `O=C(C[C@@H]1Cc2cc(Cl)c3[nH]ncc3c2CN(Cc2ccncc2)C1=O)N1CCC(c2cc3ccccc3[nH]c2=O)CC1` [Example 52, (S)-4-Chloro-7-(2-oxo-2-(4-(2-oxo-1,2-dihydroquinolin-3-yl)piperidin-1-yl)ethyl)-9-(pyridin-4-ylmethyl)-6,7,9,10-tetrahydroazepino[3,4-e]indazol-8(3H)-one]: the IC50 in assay [1] and in assay [2] was 0.1 to 10 nM each time.

In the case of `CC(C)(C)CN1Cc2c(cc(Cl)c3[nH]ncc23)C[C@@H](CC(=O)N2CCC(N3Cc4cccc(F)c4NC3=O)CC2)C1=O` [Example 40, (S)-4-Chloro-7-(2-(4-(8-fluoro-2-oxo-1,2-dihydroquinazolin-3(4H)-yl)piperidin-1-yl)-2-oxoethyl)-9-neopentyl-6,7,9,10-tetrahydroazepino[3,4-e]indazol-8(3H)-one], the half-inhibitory concentration (IC50) in assay [1] and in assay [2] was 0.1 to 10 nM throughout.

In the case of `CC(C)(C)CN1C(=O)C(CC(=O)N2CCC(N3Cc4ccccc4NC3=O)CC2)Cc2cc3[nH]ncc3cc21` (centres unmarked) [Example 6, 5-Neopentyl-7-(2-oxo-2-(4-(2-oxo-1,2-dihydroquinazolin-3(4H)-yl)piperidin-1-yl)ethyl)-7,8-dihydro-1H-pyrazolo[3,4-g]quinolin-6(5H)-one], the IC50 in assay [1] and in assay [2] was 10 to 100 nM throughout.

In the case of `O=C(C[C@@H]1Cc2cc(Cl)c3[nH]ncc3c2CN(Cc2ccncc2)C1=O)N1CCC(c2cc3ccccc3cn2)CC1` [Example 85, (S)-4-chloro-7-(2-(4-(isoquinolin-3-yl)piperidin-1-yl)-2-oxoethyl)-9-(pyridin-4-ylmethyl)-6,7,9,10-tetrahydroazepino[3,4-e]indazol-8(3H)-one], the IC50 in assay [1] and in assay [2] was 10 to 100 nM in each case.

For the molecule `CC(C)(C)CN1Cc2c(ccc3[nH]ncc23)C[C@@H](CC(=O)N2CCC(c3cc4ccccc4[nH]c3=O)CC2)C1=O` [Example 42, (S)-9-Neopentyl-7-(2-oxo-2-(4-(2-oxo-1,2-dihydroquinolin-3-yl)piperidin-1-yl)ethyl)-6,7,9,10-tetrahydroazepino[3,4-e]indazol-8(3H)-one], the IC50 in assay [1] and in assay [2] was 10 to 100 nM throughout.

As to `CC(C)(C)CN1Cc2c(cc(Cl)c3[nH]ncc23)C[C@@H](CC(=O)N2CCC(c3cc4cccc(F)c4[nH]c3=O)CC2)C1=O` [Example 47, (S)-4-Chloro-7-(2-(4-(8-fluoro-2-oxo-1,2-dihydroquinolin-3-yl)piperidin-1-yl)-2-oxoethyl)-9-neopentyl-6,7,9,10-tetrahydroazepino[3,4-e]indazol-8(3H)-one], the IC50 in assay [1] and in assay [2] was 10 to 100 nM throughout.

Turning to `CC(C)(C)CN1Cc2c(cc(Cl)c3[nH]ncc23)C[C@@H](CC(=O)N2CCC(c3cc4cnccc4[nH]c3=O)CC2)C1=O` [Example 80, 1-[[(7S)-4-chloro-9-(2,2-dimethylpropyl)-3,6,7,8,9,10-hexahydro-8-oxoazepino[3,4-e]indazol-7-yl]acetyl]-4-(1,2-dihydro-2-oxo-1,6-naphthyridin-3-yl)-piperidine], the IC50 in assay [1] and in assay [2] was 10 to 100 nM each time.

`CC(C)(C)CN1Cc2c(cc(Cl)c3[nH]ncc23)C[C@@H](CC(=O)N2CCC(n3cc(-c4ccccn4)[nH]c3=O)CC2)C1=O` [Example 45, (S)-4-Chloro-9-neopentyl-7-(2-oxo-2-(4-(2-oxo-4-(pyridin-2-yl)-2,3-dihydroimidazol-1-yl)piperidin-1-yl)ethyl)-6,7,9,10-tetrahydroazepino[3,4-e]indazol-8(3H)-one]: the IC50 in assay [1] and in assay [2] was 0.1 to 10 nM in each case.

The IC50 is the concentration at which inhibition is half-maximal.
